This note sets out measurements from patent US20140336182A1, “Aurora Kinase Modulators and Method of Use” (Amgen Inc., priority 2013, published 2014).

Structures are written as SMILES. Where only a bound is given, the exact number is not on record here.

One experiment has as its system HeLa cells. The experiment can be described thus: HeLa cell 24 hr ploidy assay (DNA content). The format is cell-based. Particulars: HeLa cells, 4N ploidy, average, read-out: 24h_4NPloidy EC50_IP (uM Avg). Summed up: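 HeLa cells (1×10^4/well, MEM+10% FBS) cultured 24 h, treated with serially diluted compounds (0.25% DMSO final), then fixed, permeabilized and stained with Hoechst 33342 (0.5 ug/ml). Imaging quantified % 4N and >4N cells; EC50 IP and EC50 transit derived from dose curves.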
Consider `c1ccc(-c2nnc(Nc3ccc(Sc4ccnc5cccnc45)cc3)c3ccccc23)cc1` [compound 285], for which the EC50 turned out to be 0.009 µM.

Staying with this experiment, now noted: Homo sapiens, HeLa, 4N ploidy, average, read-out: 24h_4NPloidy EC50_IP (uM Avg).
With `COc1cnc2c(Oc3ccc(Nc4nnc(-c5ccccc5)c5ccccc45)cc3F)ccnc2c1` [compound 89, N-(3-fluoro-4-((7-(methyloxy)-1,5-naphthyridin-4-yl)oxy)phenyl)-4-phenyl-1-phthalazinamine], the EC50 was determined as 0.052 µM.

As for `COc1cnc2c(Oc3ccc(Nc4nnc(-c5ccc6c(c5)CC(C)(C)O6)c5ccccc45)cc3)ccnc2c1` [compound 136], the EC50 came out at 0.099 µM.

For the compound `COc1cc2nccc(Oc3ccc(Nc4nnc(-c5ccc(C)c(C)c5)c5ccccc45)cc3)c2cc1OC` [compound 74], the EC50 is 0.018 µM.

With `COc1cc2nccc(Oc3ccc(Nc4nnc(-c5cccc(COC(C)=O)n5)c5ccccc45)cc3)c2cc1OC` [compound 113], the EC50 was found to be 0.048 µM.

Regarding `COc1cc2nccc(Oc3ccc(Nc4nnc(N5CCN(C)CC5)c5ccccc45)cc3)c2cn1` [compound 109], the EC50 was determined as 0.297 µM.

For `COc1cnc2c(Oc3ccc(Nc4nnc(N5CCN6CCC[C@H]6C5)c5ccccc45)cc3)ccnc2c1` [compound 97], the EC50 was 0.026 µM.

As to `COc1cnc2c(Oc3ccc(Nc4nnc(-c5cc(F)ccc5OC)c5ccccc45)cc3)ccnc2c1` [compound 80], the EC50 amounted to 0.487 µM.

Regarding `COc1cnc2c(Oc3ccc(Nc4nnc(-c5ccc(Cl)c(C#N)c5)c5ccccc45)cc3)ccnc2c1` [compound 154], the EC50 came to 0.061 µM.

Still in this experiment, the particulars now being: Homo sapiens, HeLa, HeLa cells, 4N ploidy, average, read-out: 24h_4NPloidy EC50_IP (uM Avg).
As to `COc1cnc2c(Sc3ccc(Nc4nnc(C#N)c5ccccc45)cc3)ccnc2c1` [Example 404, 4-(4-(7-Methoxy-1,5-naphthyridin-4-ylthio)phenylamino)phthalazine-1-carbonitrile], the EC50 was 0.063 µM.

For `COc1cnc2c(Oc3ccc(Nc4nnc(-c5cnn(C)c5)c5ccccc45)cc3)ccnc2c1` [compound 216], the EC50 came out at 0.074 µM.

Take `Cc1ccc(-c2nnc(Nc3ccc(Sc4ccnc5cccnc45)cc3)c3ccccc23)cn1` [compound 553]: the EC50 is 0.001 µM.

As to `COc1cnc2c(Oc3ccc(Nc4nnc(-c5ccc(F)c(C)c5)c5ccccc45)cc3)ccnc2c1` [compound 246, 4-(4-fluoro-3-methylphenyl)-N-(4-((7-(methyloxy)-1,5-naphthyridin-4-yl)oxy)phenyl)-1-phthalazinamine], the EC50 amounted to 0.03 µM.

For the compound `COc1cnc2c(Oc3ccc(Nc4nnc(-c5ccc(Cl)nc5)c5ccccc45)cc3)ccnc2c1` [compound 235, 4-(6-chloro-3-pyridinyl)-N-(4-((7-(methyloxy)-1,5-naphthyridin-4-yl)oxy)phenyl)-1-phthalazinamine], the EC50 is 0.058 µM.

For `CCc1cc(N2CC[C@H]3CCCC[C@@H]3C2)nnc1Nc1ccc(Oc2ccnc3cc(OC)cnc23)cc1` [compound 320], the EC50 came out at 0.12 µM.

With `COc1cnc2c(Sc3ccc(Nc4nnc(-c5ccc(C)c(N)c5)c5ccccc45)cc3)ccnc2c1` [compound 477], the EC50 worked out at 0.001 µM.

Turning to `COc1cnc2c(Sc3ccc(Nc4nnc(-c5ccccc5F)c5ccccc45)cc3)ccnc2c1` [compound 495], the EC50 amounted to 0.024 µM.

On to `Cn1cc(-c2ccc3c(Oc4ccc(Nc5nnc(-c6ccccc6)c6ccccc56)cc4)ccnc3c2)cn1` [compound 338, N-(4-(7-(1-methyl-1H-pyrazol-4-yl)quinolin-4-yloxy)phenyl)-4-phenylphthalazin-1-amine], for which the EC50 turned out to be 0.005 µM.

`COc1cnc2c(Oc3ccc(Nc4nnc(-c5ccc(F)c(F)c5)c5ccccc45)cc3)ccnc2c1` [compound 214]: the EC50 turned out to be 0.033 µM.

For the compound `COc1cnc2c(Oc3ccc(Nc4nnc(-c5ccc(C)c(O)c5)c5ccccc45)cc3)ccnc2c1` [compound 449], the EC50 was less than 0.0023 µM.

As for `Cc1cc2nccc(Sc3ccc(Nc4nnc(-c5ccc(C)c(N)c5)c5ccccc45)cc3)c2o1` [compound 492], the EC50 was 0.021 µM.

Take `COc1cnc2c(Oc3ccc(Nc4nnc(C5CC5)c5ccccc45)cc3)ccnc2c1` [compound 543]: the EC50 amounted to 0.281 µM.

For the compound `COc1cnc2c(Oc3ccc(Nc4nnc(-c5ccc(F)c(Cl)c5)c5ccccc45)cc3)ccnc2c1` [compound 193, 4-(3-chloro-4-fluorophenyl)-N-(4-((7-(methyloxy)-1,5-naphthyridin-4-yl)oxy)phenyl)-1-phthalazinamine], the EC50 came to 0.027 µM.

As for `c1ccc(-c2nnc(Nc3ccc(Sc4ccnc5cc[nH]c45)cc3)c3ccccc23)cc1` [compound 462], the EC50 turned out to be 0.043 µM.

Consider `CCc1ccc(-c2nnc(Nc3ccc(Oc4ccnc5cc(OC)cnc45)cc3)c3ccccc23)s1` [compound 229], for which the EC50 was 0.026 µM.

As for `Cc1noc(-c2cc3nccc(Sc4ccc(Nc5nnc(-c6ccccc6)c6ccccc56)cc4)c3s2)n1` [compound 303, N-(4-((2-(3-methyl-1,2,4-oxadiazol-5-yl)thieno[3,2-b]pyridin-7-yl)thio)phenyl)-4-phenyl-1-phthalazinamine], the EC50 was determined as 0.25 µM.

In the case of `c1ccc(-c2nnc(Nc3ccc(Cn4cnc5ccccc54)cc3)c3ccccc23)cc1` [compound 340], the EC50 was no less than 1.2 µM.

On to `COc1cnc2c(Sc3ccc(Nc4nnc(C5=CCNCC5)c5ccccc45)cc3)ccnc2c1` [Example 401, N-(4-(7-Methoxy-1,5-naphthyridin-4-ylthio)phenyl)-4-(1,2,3,6-tetrahydropyridin-4-yl)phthalazin-1-amine], for which the EC50 stood at 0.187 µM.

Take `COc1cnc2c(Oc3ccc(Nc4nnc(-c5ccc(C)c(N)c5)c5cc(F)c(F)cc45)cc3)ccnc2c1` [compound 545]: the EC50 was 0.012 µM.

`COCCn1ccc2nccc(Sc3ccc(Nc4nnc(-c5ccc(Cl)cc5)c5ccccc45)cc3)c21` [compound 469]: the EC50 worked out at 0.003 µM.

`N#Cc1cnc2c(Oc3ccc(Nc4nnc(-c5ccc(Cl)cc5)c5ccccc45)cc3)ccnc2c1` [compound 265, 8-((4-((4-(4-chlorophenyl)-1-phthalazinyl)amino)phenyl)oxy)-1,5-naphthyridine-3-carbonitrile]: the EC50 was 0.056 µM.

With `COc1cnc2c(Sc3ccc(Nc4nnc(N5CCN6CCCC[C@@H]6C5)c5ccccc45)cc3)ccnc2c1` [compound 580], the EC50 is 0.005 µM.

Consider `COc1cnc2c(Oc3ccc(Nc4nnc(-c5cc(C)cs5)c5ccccc45)cc3OC)ccnc2c1` [compound 567], for which the EC50 is 0.227 µM.

For `Clc1ccc(-c2nnc(Nc3ccc(Sc4ccnc5ccoc45)cc3)c3ccccc23)cc1` [compound 465], the EC50 worked out at 0.02 µM.

On to `COc1cnc2c(Oc3ccc(Nc4nnc(-c5cc6ccccc6s5)c5ccccc45)cc3)ccnc2c1` [compound 171], for which the EC50 was 0.004 µM.

As for `CN(c1ccc(Oc2ccnc3ccc(=O)[nH]c23)cc1)c1nnc(-c2ccc(Cl)cc2)c2ccccc12` [compound 500], the EC50 is greater than 1.2 µM.

Regarding `COc1cnc2c(Sc3ccc(Nc4nnc(N5CCC(F)(F)CC5)c5ccccc45)cc3)ccnc2c1` [compound 531], the EC50 is 0.049 µM.

`Clc1ccc(-c2nnc(Nc3ccc(Oc4ncnc5ccsc45)cc3)c3ccccc23)cc1` [compound 591]: the EC50 is 0.115 µM.

Regarding `COc1ccc2nccc(Oc3ccc(Nc4nnc(-c5ccc(C)cn5)c5ccccc45)cc3)c2c1` [compound 554], the EC50 is 0.108 µM.

Take `COc1cnc2c(Sc3ccc(Nc4nnc(-c5ccc6cn(C)nc6c5)c5ccccc45)cc3)ccnc2c1` [compound 502]: the EC50 was determined as 0.006 µM.

With `Cc1ccc(-c2nnc(Nc3ccc(Sc4ccnc5ccoc45)cc3)c3ccccc23)cc1N` [compound 479], the EC50 was determined as 0.009 µM.

As to `Clc1ccc(-c2nnc(Nc3ccc(CN4CCOc5ccccc54)cc3)c3ccccc23)cc1` [compound 349], the EC50 was greater than 1.2 µM.

Consider `Clc1ccc(-c2nnc(Nc3ccc(Oc4ccnc5ccncc45)cc3)c3ccccc23)cc1` [compound 423], for which the EC50 was found to be 0.031 µM.

For `COc1cnc2c(Oc3ccc(Nc4nnc(-c5ccccc5)c5c4CCC5)cc3)ccnc2c1` [compound 367], the EC50 is 0.039 µM.

Regarding `Cc1nc(-c2nnc(Nc3ccc(Oc4ccnc5cc(C#N)ccc45)cc3)c3ccccc23)sc1C` [compound 277], the EC50 stood at 0.035 µM.

With `COc1cccc(-c2nnc(Nc3ccc(Oc4ccnc5cc(-c6cncn6C)sc45)cc3)c3ccccc23)n1` [compound 240], the EC50 was 0.01 µM.

Take `COc1cnc2c(Sc3ccc(Nc4nnc(N5CCC(N6CCCC6)CC5)c5ccccc45)cc3)ccnc2c1` [compound 538]: the EC50 is 0.178 µM.

Consider `CS(=O)(=O)CCOc1ccc2nccc(Sc3ccc(Nc4nnc(-c5ccc(Cl)cc5)c5ccccc45)cc3)c2c1` [Example 390, 4-(4-Chlorophenyl)-N-(4-(6-(2-(methylsulfonyl)ethoxy)quinolin-4-ylthio)phenyl) phthalazin-1-amine], for which the EC50 is greater than 1.2 µM.

For `Cc1cccc(-c2nnc(Nc3ccc(Sc4ccnc5ccoc45)cc3)c3ccccc23)n1` [compound 488], the EC50 amounted to 0.241 µM.

For `COc1cnc2c(Oc3ccc(Nc4nnc(-c5ccnc(Cl)c5)c5ccccc45)cc3)ccnc2c1` [compound 283], the EC50 is 0.343 µM.

Take `COc1cnc2c(Sc3ccc(Nc4nnc(Cl)c5ccccc45)cc3)ccnc2c1` [compound 536]: the EC50 is 0.031 µM.

In the case of `N#Cc1cc2nccc(Sc3ccc(Nc4nnc(-c5ccc(Cl)cn5)c5ccccc45)cc3)c2s1` [compound 460], the EC50 is 0.041 µM.

For the compound `Cc1ccc(-c2nnc(Nc3ccc(Oc4ccnc5ccsc45)cc3)c3ccccc23)cc1` [compound 252], the EC50 turned out to be 0.027 µM.

The same experiment, now with this note: Homo sapiens, HeLa, HeLa cells, 4N ploidy, given as class symbol, read-out: 24h_4NPloidy EC50_IP (uM Avg).
In the case of `Fc1cc(F)c2c(Sc3ccc(Nc4nnc(-c5ccccc5)c5ccccc45)cc3)ccnc2c1` [compound 295], the EC50 is less than 0.1 µM.

Still in this experiment, the particulars now being: Homo sapiens, HeLa, HeLa cells, average, read-out: 24h_4NPloidy EC50_IP (uM Avg).
With `COc1ccc2c(C(=O)c3ccc(Nc4nnc(-c5ccc(Cl)cc5)c5ccccc45)cc3)ccnc2c1` [compound 615], the EC50 was determined as 0.15 µM.
